Assay results from patent publication US11491117B2, “Compounds for the prevention and treatment of glucose intolerance related conditions and obesity” (SORBONNE UNIVERSITÉ, priority 2017, dated 2022).

Columns and labels:
isolated mouse islets = test: Incubation of isolated mouse islets: insulin release, insulin content, Ki67 proliferation; assay type: cell-based
Goto-Kakizaki (GK) rats = test: Chronic subcutaneous infusion in Goto-Kakizaki rats: body and organ weight, glucose homeostasis (IPGTT), insulin secretion; assay type: in vivo, rat
Protocol: The animal experiments on rats were conducted on diabetic adult 8 months aged male Goto-Kakizaki (GK) rats from the local colony of Paris-Diderot University (Paris, France). GK strain derived after backcrossing of animals selected at the upper limit of normal distribution for glucose tolerance. Characteristics of GK rats have been previously described. Rats had free access to a control carbohydrate diet (CHD) (D 12450Ki, Research diets, NJ) and were kept on 12 h light/dark cycle. […] Rats were killed by decapitation and blood and organs collected for measurement of metabolic parameters, islet isolation for quantitative RT-PCR analysis and immunohistochemistry. […] After three weeks of metabolite treatment (i.e. four weeks of HFD feeding) an intra-peritoneal glucose tolerance test (IPGTT) (2 g/kg) was performed in conscious mice following an overnight fast. Blood was collected from the tail vein before glucose injection and 15, 30, 60 and 120 minutes afterwards. Additional blood samples were collected during the IPGTT in GK rats 15, 90, 180 and 240 minutes after glucose injection. Blood glucose levels were determined using an Accu-Check® Performa (Roche Diagnostics, Meylan, France). Additional blood samples were collected at base line and 30 minutes after glucose injection in Microvette® CB 300 Lithium Heparin ([…], France). Plasma was separated by centrifugation and stored at -80° C. until insulin radioimmunoassay. Evaluation of overall glucose tolerance was obtained from cumulative glycemia (GCum) and the ΔG, which were determined by the total increment of plasma glucose values during the IPGTT (GCum) and the cumulative glycemia during the test above baseline (ΔG). After six weeks of metabolite treatment, mice were killed by decapitation and organ were dissected and weighed. Half of liver, fat and pancreas samples were snap frozen in liquid nitrogen and stored at -80° C. for molecular studies, and the second half processed for histopathology. All procedures were authorized following review by the institutional ethic committee and carried out under national license condition (Ref 00486.02). Blood glucose was measured using an Accu-Check® Performa (Roche Diagnostics, Meylan, France) and plasma insulin was determined using Insulin ELISA kits (Mercodia, Uppsala, Sweden). For determination of liver triglycerides, liver samples (100 mg) were homogenized and incubated in NonidetP-40 (5%) and supernatants containing triglycerides were collected. Triglycerides concentration was quantified in the supernatant fraction using a colorimetric assay (ab65336, Abcam, Paris, France) by measuring OD at 570 nm. The ratio NAD/NADH was determined using a quantification kit (MAK037; […] Samples were homogenized in the extraction buffer and clarified by centrifugation. Supernatant was deproteinized by filtration through a 10-kDa cutoff spin filter (Millipore SAS, Molsheim, France). The assay was then performed according to the manufacturer's instructions.

[1] = target: dual specificity tyrosine phosphorylation regulated kinase DYRK1A (Homo sapiens, UniProt Q13627); test: In vitro interaction analysis (DiscoverX) by determination of the EC50
pancreas gene expression = test: Quantitative RT-PCR and NAD/NADH in total pancreas of chronically treated mice; assay type: in vivo, mouse
Protocol: Blood glucose was measured using an Accu-Check® Performa (Roche Diagnostics, Meylan, France) and plasma insulin was determined using Insulin ELISA kits (Mercodia, Uppsala, Sweden). For determination of liver triglycerides, liver samples (100 mg) were homogenized and incubated in NonidetP-40 (5%) and supernatants containing triglycerides were collected. Triglycerides concentration was quantified in the supernatant fraction using a colorimetric assay (ab65336, Abcam, Paris, France) by measuring OD at 570 nm. The ratio NAD/NADH was determined using a quantification kit (MAK037; […] Samples were homogenized in the extraction buffer and clarified by centrifugation. Supernatant was deproteinized by filtration through a 10-kDa cutoff spin filter (Millipore SAS, Molsheim, France). The assay was then performed according to the manufacturer's instructions. RNA was extracted from pancreas, adipose tissue and liver using the RNeasy RNA Mini Kit (Qiagen, Courtaboeuf, France). Reverse transcription was performed from a 20 μL reaction mixture with 500 ng RNA using M-MLV reverse transcriptase kit (ThermoFisher, Villebon, France). Quantitative RT-PCR was performed using sequence specific primers and the MESA green kit for SYBR green assays (Eurogentec, Angers, France). We used 18S and/or cyclophilin house keeping genes to normalize relative quantification of mRNA levels using the Livak and […] methods ([…], 2001).

[2] = CHD-fed mice, not statistically significant

SMILES: Cc1ccc(O)cc1 [4-cresol]
- islet cell proliferation (KI67) (isolated mouse islets; 10 nM): significant effect
- increase in insulin release under basal condition (isolated mouse islets; 10 nM, 2.8 mM glucose): +17.3%
- stimulation of insulin secretion in response to glucose (isolated mouse islets; 10 nM, glucose 16.6 mM, p=0.06): +25.8%
- increase in islet insulin content (isolated mouse islets; 10 nM, p<0.05): +33.7%
- insulin production, secretion and content (isolated mouse islets; 100 nM): no effect
- fasting glycemia (Goto-Kakizaki (GK) rats): significant reduction
- glycemic response to the glucose challenge throughout the IPGTT (glucose intolerance) (Goto-Kakizaki (GK) rats): decrease
- cumulative glycemia (Goto-Kakizaki (GK) rats; IPGTT): significant drop
- increase in pancreas weight (Goto-Kakizaki (GK) rats; P<0.01): +94.6%
- BMI (Goto-Kakizaki (GK) rats; chronic administration 6 weeks): no effect
- body weight (Goto-Kakizaki (GK) rats; chronic administration 6 weeks): no effect
- fasting insulinemia (Goto-Kakizaki (GK) rats; vs saline): significantly more elevated
- glucose-induced insulin secretion during the IPGTT (Goto-Kakizaki (GK) rats; vs saline): significantly more elevated
- binding to DYRK1A [1]: does bind
- expression of Ins1 and Hnf1α in pancreas (pancreas gene expression; [2]): Enhanced expression
- expression of Ucp2 in pancreas (pancreas gene expression; [2]): reduced expression
- transcription of genes encoding amylase, Vegf, Bdnf, IL10 and Sirt1 in pancreas (pancreas gene expression; CHD-fed mice, vs saline-treated CHD-fed mice): increased transcription
- IL10 transcript level in pancreas (pancreas gene expression; HFD-fed mice): remained elevated
- expression of Bdnf, Hnf1α, Pdx1 and Vegf in pancreas (pancreas gene expression; HFD-fed mice, differences not statistically significant): strongly overexpressed
- pancreatic expression of ERα (pancreas gene expression; fat fed mice in vivo): does not regulate significantly
- expression of Ucp2, IL6 and Tnf in pancreas (pancreas gene expression; mice fed HFD, vs HFD saline): significantly reduced expression
- expression of genes encoding Sirt1 and Ins1 in pancreas (pancreas gene expression; mice fed HFD, vs HFD saline): significant overexpression
- DYRK1A pancreatic transcription (pancreas gene expression; mice fed control or HFD, chronic treatment): significant downregulation
